# Measured values taken from PubChem BioAssay AID328 (DTP/NCI, 2004).
# Where “and” joins values, the source holds several entries; their conditions need not be identical. Equal entries are not always repeated. Inconclusive results and toxic doses are left out.
# Test system: BDF1 mice, P388 leukemia ip, median survival T/C
# Assay: NCI In Vivo Anticancer Drug Screen. Data for tumor model P388 Leukemia (intraperitoneal) in B6D2F1 (BDF1) mice
# Details: endpoint: median survival time, higher = longer survival
# Outline: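 Each value expresses how treatment altered survival: treated-mouse outcome over vehicle-mouse outcome, both groups bearing the transplanted tumour.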
# [1] = dose: 50.0 mg/kg/injection, schedule: Q01DX009 (ip), vehicle: saline with Tween-80
# [2] = dose: 100.0 mg/kg/injection, schedule: Q01DX009 (ip), vehicle: saline with Tween-80
# [3] = dose: 200.0 mg/kg/injection, schedule: Q01DX009 (ip), vehicle: saline with Tween-80
# [4] = dose: 50.0 mg/kg/injection, schedule: Q04DX003 (ip), vehicle: saline
# [5] = dose: 75.0 mg/kg/injection, schedule: Q04DX003 (ip), vehicle: saline
# [6] = dose: 25.0 mg/kg/injection, schedule: Q04DX003 (ip), vehicle: saline
# [7] = dose: 25.0 mg/kg/injection, schedule: Q01DX009 (ip), vehicle: Klucel (hydroxypropylcellulose) (HPC)
# [8] = dose: 50.0 mg/kg/injection, schedule: Q01DX009 (ip), vehicle: Klucel (hydroxypropylcellulose) (HPC)
# [9] = dose: 100.0 mg/kg/injection, schedule: Q01DX009 (ip), vehicle: Klucel (hydroxypropylcellulose) (HPC)
# [10] = dose: 100.0 mg/kg/injection, schedule: Q04DX003 (ip), vehicle: saline with Tween-80
# [11] = dose: 200.0 mg/kg/injection, schedule: Q04DX003 (ip), vehicle: saline with Tween-80
# [12] = dose: 400.0 mg/kg/injection, schedule: Q01DX009 (ip), vehicle: saline with Tween-80
# [13] = dose: 400.0 mg/kg/injection, schedule: Q04DX003 (ip), vehicle: saline with Tween-80
# [14] = dose: 100.0 mg/kg/injection, schedule: Q01DX009 (ip), vehicle: water
# [15] = dose: 200.0 mg/kg/injection, schedule: Q01DX009 (ip), vehicle: water
# [16] = dose: 400.0 mg/kg/injection, schedule: Q01DX009 (ip), vehicle: water
compound,measurement,setting,value
CSP12(OCCO1)OCCO2,T/C,"dose: 50.0 mg/kg/injection, schedule: Q01DX005 (ip), vehicle: saline",94 % of control
same,T/C,"dose: 100.0 mg/kg/injection, schedule: Q01DX005 (ip), vehicle: saline",94 % of control
same,T/C,"dose: 200.0 mg/kg/injection, schedule: Q01DX005 (ip), vehicle: saline",91 % of control
O=C(O)c1ccccc1C(=O)Nc1ccc([N+](=O)[O-])cc1Cl,T/C,"dose: 50.0 mg/kg/injection, schedule: Q04DX003 (ip), vehicle: Klucel (hydroxypropylcellulose) (HPC)",100 % of control
same,T/C,"dose: 100.0 mg/kg/injection, schedule: Q04DX003 (ip), vehicle: Klucel (hydroxypropylcellulose) (HPC)",100 % of control
same,T/C,"dose: 200.0 mg/kg/injection, schedule: Q04DX003 (ip), vehicle: Klucel (hydroxypropylcellulose) (HPC)",95 % of control
COc1ccc2c(=O)c3c(=O)c4c(=O)oc5ccccc5c4oc3oc2c1,T/C,[1],88 % of control
same,T/C,[2],88 % of control
same,T/C,[3],88 % of control
CC1(C)N=C(N)N=C(N)N1c1cccc(C#N)c1,T/C,"dose: 22.0 mg/kg/injection, schedule: Q04DX003 (ip), vehicle: saline",111 % of control and 118 % of control
same,T/C,"dose: 33.0 mg/kg/injection, schedule: Q04DX003 (ip), vehicle: saline",122 % of control and 123 % of control
same,T/C,[4],118 % of control and 123 % of control
same,T/C,[5],95 % of control
same,T/C,"dose: 100.0 mg/kg/injection, schedule: Q04DX003 (ip), vehicle: saline",116 % of control
COc1cc2cc3c4ccccc4cc[n+]3c(C)c2cc1OC (tested in a mixture with another compound),T/C,"dose: 5.0 mg/kg/injection, schedule: Q04DX003 (ip), vehicle: saline",101 % of control
same,T/C,"dose: 20.0 mg/kg/injection, schedule: Q01DX009 (ip), vehicle: saline",109 % of control
same,T/C,"dose: 40.0 mg/kg/injection, schedule: Q01DX009 (ip), vehicle: saline",104 % of control
same,T/C,"dose: 80.0 mg/kg/injection, schedule: Q04DX003 (ip), vehicle: saline",109 % of control
Cc1ccc(S(=O)(=O)N(C)c2ccc(C(=O)O)cc2F)cc1,T/C,[5],100 % of control
same,T/C,"dose: 150.0 mg/kg/injection, schedule: Q04DX003 (ip), vehicle: saline",104 % of control
same,T/C,"dose: 300.0 mg/kg/injection, schedule: Q04DX003 (ip), vehicle: saline",100 % of control
CC1(C)CN(C(C)(C)C)CC(C)(C)C(=O)C1=O,T/C,"dose: 12.5 mg/kg/injection, schedule: Q04DX003 (ip), vehicle: saline",90 % of control
same,T/C,[6],95 % of control
same,T/C,[4],95 % of control
CC(=O)C1(O)Cc2c(O)c3c(c(O)c2C(OC2CC(N)C(O)C(C)O2)C1)C(=O)c1ccccc1C3=O (configuration not stated),T/C,"dose: 324.0 micrograms/kg/injection, schedule: Q04DX003 (ip), vehicle: water",177 % of control
same,T/C,"dose: 540.0 micrograms/kg/injection, schedule: Q04DX003 (ip), vehicle: water",220 % of control
same,T/C,"dose: 900.0 micrograms/kg/injection, schedule: Q04DX003 (ip), vehicle: water",116 % of control
same,T/C,"dose: 1500.0 micrograms/kg/injection, schedule: Q04DX003 (ip), vehicle: water",90 % of control
O=c1oc2c3ccccc3c3ccccc3c2o1,T/C,[7],117 % of control
same,T/C,[8],115 % of control
same,T/C,[9],114 % of control
Cc1ccc2c(Br)cc(Br)c(O)c2n1,T/C,"dose: 10.0 mg/kg/injection, schedule: Q01DX009 (ip), vehicle: Klucel (hydroxypropylcellulose) (HPC)",115 % of control
same,T/C,"dose: 20.0 mg/kg/injection, schedule: Q01DX009 (ip), vehicle: Klucel (hydroxypropylcellulose) (HPC)",115 % of control
same,T/C,"dose: 40.0 mg/kg/injection, schedule: Q01DX009 (ip), vehicle: Klucel (hydroxypropylcellulose) (HPC)",115 % of control
same,T/C,[9],100 % of control
CCC(=O)Oc1c(Cl)c(Cl)c(C#N)c(Cl)c1Cl,T/C,[10],108 % of control
same,T/C,[11],116 % of control
Cc1cn(C2CC(O)C(CO)O2)c(=O)[nH]c1=O (configuration not stated),T/C,"dose: 500.0 mg/kg/injection, schedule: Q04DX003 (ip), vehicle: saline",101 % of control
same,T/C,"dose: 750.0 mg/kg/injection, schedule: Q04DX003 (ip), vehicle: saline",111 % of control
same,T/C,"dose: 1000.0 mg/kg/injection, schedule: Q04DX003 (ip), vehicle: saline",104 % of control
COc1cc(Br)c(/C=C(\C)[N+](=O)[O-])cc1OC,T/C,"dose: 100.0 mg/kg/injection, schedule: Q01DX001 (ip), vehicle: saline with Tween-80",109 % of control
same,T/C,"dose: 200.0 mg/kg/injection, schedule: Q01DX001 (ip), vehicle: saline with Tween-80",93 % of control
O=[N+]([O-])c1ccc(S)cc1,T/C,"dose: 18.75 mg/kg/injection, schedule: Q01DX009 (ip), vehicle: saline sonified",100 % of control
same,T/C,"dose: 37.5 mg/kg/injection, schedule: Q01DX009 (ip), vehicle: saline sonified",100 % of control
same,T/C,"dose: 75.0 mg/kg/injection, schedule: Q01DX009 (ip), vehicle: saline sonified",117 % of control
Cc1nnc2n1N=C(c1ccc(O)c(O)c1O)CS2,T/C,[1],94 % of control
same,T/C,[2],93 % of control
same,T/C,[3],107 % of control
C=C1C(=O)OC2/C=C(\CO)C(OC(C)=O)CC(O)/C(C)=C/C(OC(=O)C(C)CC)C12 (configuration not stated),T/C,"dose: 6.25 mg/kg/injection, schedule: Q01DX009 (ip), vehicle: Klucel (hydroxypropylcellulose) (HPC)",110 % of control
same,T/C,"dose: 12.5 mg/kg/injection, schedule: Q01DX009 (ip), vehicle: Klucel (hydroxypropylcellulose) (HPC)",108 % of control
same,T/C,[7],119 % of control
same,T/C,[8],117 % of control
O=C(CC(c1ccccc1)C(C(=O)O)c1ccccc1)c1ccccc1 (configuration not stated),T/C,[8],101 % of control
same,T/C,[9],92 % of control
NCCCC(NC(=O)CCCCCCCCN=C(N)N)C(O)CCCCCCCCN=C(N)N (configuration not stated),T/C,"dose: 3.75 mg/kg/injection, schedule: Q01DX010 (ip), vehicle: saline",91 % of control
CCNS(=O)(=O)c1ncnc2nc[nH]c12,T/C,[2],100 % of control
same,T/C,[10],104 % of control
same,T/C,[3],100 % of control
same,T/C,[11],100 % of control
same,T/C,[12],100 % of control
same,T/C,[13],100 % of control
O=C(Cn1ccc(O)cc1=O)N1CCOCC1,T/C,[14],105 % of control
same,T/C,[15],104 % of control
same,T/C,[16],104 % of control
Nc1ncnc2c1ncn2C1OC(CO)C(O)C1O.[Cl][Pt][Cl] (configuration not stated),T/C,[14],115 % of control
same,T/C,[15],102 % of control
same,T/C,[16],96 % of control
CC/C=N/NC(N)=S,T/C,"dose: 3.13 mg/kg/injection, schedule: Q01DX009 (ip), vehicle: saline with Tween-80",94 % of control
same,T/C,"dose: 6.25 mg/kg/injection, schedule: Q01DX009 (ip), vehicle: saline with Tween-80",94 % of control
same,T/C,"dose: 12.5 mg/kg/injection, schedule: Q01DX009 (ip), vehicle: saline with Tween-80",94 % of control
c1ccc(Oc2c3ccccc3nc3ccccc23)cc1,T/C,"dose: 50.0 mg/kg/injection, schedule: Q01DX005 (ip), vehicle: saline with Tween-80",123 % of control
O=C1NC(c2ccccc2)(c2ccccc2)C(=O)N1CCS,T/C,"dose: 6.25 mg/kg/injection, schedule: Q01DX009 (ip), vehicle: saline",89 % of control and 122 % of control
same,T/C,"dose: 12.5 mg/kg/injection, schedule: Q01DX009 (ip), vehicle: saline",104 % of control and 107 % of control
same,T/C,"dose: 25.0 mg/kg/injection, schedule: Q01DX009 (ip), vehicle: saline",106 % of control and 116 % of control
same,T/C,[6],98 % of control
same,T/C,"dose: 50.0 mg/kg/injection, schedule: Q01DX009 (ip), vehicle: saline",95 % of control and 105 % of control
CC(C)CCCBr,T/C,[2],118 % of control
same,T/C,[10],108 % of control
same,T/C,[3],113 % of control
same,T/C,[11],112 % of control
same,T/C,[12],122 % of control
same,T/C,[13],108 % of control
NC(=O)c1nc(C(F)(F)F)[nH]c1C(N)=O,T/C,"dose: 25.0 mg/kg/injection, schedule: Q01DX009 (ip), vehicle: water",107 % of control
same,T/C,"dose: 50.0 mg/kg/injection, schedule: Q01DX009 (ip), vehicle: water",105 % of control and 107 % of control
same,T/C,"dose: 50.0 mg/kg/injection, schedule: Q04DX003 (ip), vehicle: water",102 % of control
same,T/C,[14],108 % of control and 118 % of control
same,T/C,"dose: 100.0 mg/kg/injection, schedule: Q04DX003 (ip), vehicle: water",102 % of control
same,T/C,[15],107 % of control and 118 % of control
same,T/C,"dose: 200.0 mg/kg/injection, schedule: Q04DX003 (ip), vehicle: water",109 % of control
same,T/C,"dose: 300.0 mg/kg/injection, schedule: Q01DX009 (ip), vehicle: water",96 % of control
same,T/C,[16],118 % of control
same,T/C,"dose: 400.0 mg/kg/injection, schedule: Q04DX003 (ip), vehicle: water",102 % of control
